Experimental findings from patent US20240409647A1, “BISPECIFIC BINDING PROTEINS AGAINST ALARMINS AND USES THEREOF” (SINOMAB BIOSCIENCE LIMITED, priority 2022, published 2024) are described below.

This assay deals with ILC2 population in human PBMC. As to the kind of experiment: ILC2 cell population in human PBMC culture (flow cytometry). The assay is classed as cell-based. More on the design: key: −: no inhibition; +: weak; ++: moderate; +++: strong inhibition. The settings on record: IL-2 (10 unit/mL) and three alarmins (10 ng/ml), 5 days. The text has this: While alarmins are known to work in concert to enhance ILC2 and Th2 cell functions such as increase in cell population, steroids such as Dexamethasone (Dex) can negate these effects, resulting in the mitigation of type 2 immune responses [Jia, Yi et al. American Journal Of Respiratory Cell And Molecular Biology, vol. 55, 5 (2016): 675-683]. ILC2 and Th2 cell population can be determined by flow cytometry (BD FACSVerse) following standard procedures known to those skilled in the art.
For orientation: In flow cytometry, cells or beads pass a laser one at a time.

As to “SM17: humanized anti-IL17RB monoclonal antibody, human IgG4 isotype; HC SEQ ID NO: 32, LC SEQ ID NO: 33”, the “Cell proliferation inhibition, ILC2” value is reported as “++”.
